This is an account of results in patent US8048893B2, “Pyrazolyl derivatives, preparation process and intermediates of this process as medicinal products and pharmaceutical compositions containing them” (Aventis Pharma SA, priority 2003, dated 2011).

Take `Cl.Cl.Oc1nn(CCN2CC3CCC2C3)cc1-c1ccccc1` (stereo not shown): the melting point (commonly the temperature, or range, at which the solid turns liquid) is 173 °C (dec.).
In the case of `CC(Cn1cc(-c2ccccc2)c(O)n1)N(C)C.Cl.Cl` (stereo not shown) it was 189 °C; in that of `Cc1c(-c2ccccc2)c(O)nn1CCN1CCCCC1.Cl.Cl`, 222 °C; in that of `Cl.Cl.Oc1nn(CCN2CCCCCC2)cc1-c1ccccc1`, 228 °C (dec.).
For the compound `CS(=O)(=O)Nc1nn(CCN2CCCCC2)cc1-c1ccccc1` [Example 25, N-[4-Phenyl-1-(2-piperidin-1-ylethyl)-1H-pyrazol-3-yl]-methanesulfonamide], the melting point worked out at 121 °C.
The figure for `CN1CCCC(Cn2cc(-c3ccccc3)c(O)n2)C1` (stereo not shown) [Example 27, 1-(1-Methylpiperidin-3-ylmethyl)-4-phenyl-1H-pyrazol-3-ol] is 132 °C; for `NC(=O)c1ccccc1-c1cnn(CCN2CCCCC2)c1` [Example 72, 2-[1-(2-Piperidin-1-ylethyl)-1H-pyrazol-4-yl]benzamide] it is 168 °C.
